Laboratory results reported in patent publication US9494572B2, “Method and compositions for treating cancer and related methods” (Icahn School of Medicine at Mount Sinai, priority 2011, dated 2016).
Read-outs that look alike come from different tables or passages of the source.

Legend:
[1] = cited from earlier work
[2] = system: H1650 cell line; test: Apoptosis (FACS sub-G1, cleaved PARP and Caspase 3) in H1650; assay type: cell-based, human
Protocol: (§1) Cells treated with drug or transfected with siRNA were stained with propidium iodide to ascertain DNA content and determine cell cycle distribution within the cell population as previously described. […] Sub-G1 peaks were analyzed on DNA histograms; hypo diploid DNA represented dead cells. This fraction indicated apoptotic as well as necrotic cells. Apoptosis was further validated by Caspase 3 and PARP cleavage through western blotting.
(§2) The role of KLF6 in induction of apoptosis in response to anti-EGFR therapeutics was further tested in cell culture.

[3] = system: H1650; test: Cell viability, H1650; assay type: cell-based; details: Homo sapiens, NCI-H1650
[4] = system: A549luc; test: Cell viability, A549luc; assay type: cell-based; details: Homo sapiens
[5] = system: H3255; test: Cell viability, H3255; assay type: cell-based; details: Homo sapiens, NCI-H3255
[6] = system: FOXO1; test: FOXO1 immunocytochemistry in H1650 cells; details: 20 μM, 48 hours, vs untreated
Protocol: Viability of cells line H1650, A549luc and H3255 were determined for cells grown in control medium and medium supplemented with 10 μM, 20 μM and 40 μM chlorpromazine.
H1650 cells were plated on glass coverslips at a density of 150,000 cells in complete RPMI media. […] After incubation with a secondary goat anti-Rabbit IgG (1:1000), (H+L) FITC conjugate (Millipore, P307F), cover slips were mounted with Vectashield DAPI counterstain (H1200) and visualized under fluorescent microscope. A total of 100 cells per condition were counted to determine the distribution of FOXO1 in the cytoplasm vs. the nucleus.

[7] = system: KLF6; test: KLF6 mRNA and protein expression in H1650; assay type: cell-based, human; details: 40 μM TFP, 1 h and 48 h
Protocol: (§3) RNA was isolated from cell lines and tumor samples using the RNeasy Mini Kit (Qiagen) as per manufacturer's instructions. For each PCR reaction, 1 μg RNA was reverse transcribed using iScript cDNA synthesis kit (BioRad Laboratories). Each cDNA sample was subjected to sequence-specific partial amplification with specific primers and the SYBR green PCR Master Mix (Applied Biosystems) on an ABI PRISM 7900HT plate-reader instrument. […] The following primers were also used: FOXO1 forward 5′ […]
as §2

[8] = system: FOXO1; test: Nuclear cytoplasmic fractionation of H1650; assay type: cell-based, human; details: 20 μM, 1 h
Protocol: H1650 cells were seeded and grown to 60-70% confluency, and treated with increasing doses of TFP. Cell lysates were extracted using NE-PER Nuclear and Cytoplasmic Extraction Reagents (Thermo Scientific) according to supplier's protocol.
Trifluoperazine Hydrochloride (TFP), a FDA-approved antipsychotic and antiemetic, is an effective nuclear export inhibitor of the FOXO1 transcription factor that increases FOXO1 nuclear localization via calmodulin inhibition upstream of AKT and downstream of PI3K. Kau, T. R., et al. Cancer Cell 4, 463-476 (2003). TFP was used to inhibit nuclear export of FOXO1 and determine if activation of the FOXO1/KLF6 transcriptional network could restore sensitivity to the PTEN-depleted, erlotinib-resistant cell line, H1650. To examine the effect of TFP on nuclear localization of FOXO1 and, subsequently, KLF6 expression, H1650 cells were treated for 1 h with increasing doses of TFP (0, 20 μM, 40 μM) and fractionated into nuclear and cytoplasmic fractions. BRCA1 served as a nuclear marker and GAPDH served as a cytoplasmic marker for the fractionation.

[9] = system: H1650 xenograft tumors; test: Tumorgenicity assay, H1650 xenograft; assay type: in vivo, nude mice; details: i.p., erlotinib 25 mg/kg, TFP 10 mg/kg, four treatments
Protocol: H1650 cells (5×10^6) were similarly injected into the right flank of 6 to 8-week old female BALB/c nu/nu mice. Tumor volume was assessed weekly as previously described by Sangodkar, J., et al., supra until volumes reached an average of 200 mm^3. […] A total of four treatments were given with a 48 h rest period.
Tumor growth was measured weekly until average tumor volume for all mice was approximately 200 mm^3. […] Tumor growth in H1650-injected nude mice was measured 24 hours after each drug injection. […] Lysate homogenates from treated and untreated tumors were run and probed in parallel (n=5); statistical significance of densitometry calculations indicated (*P<0.05; **P<0.01; ***P<0.001).

[10] = system: HCC827 cell line
Protocol: as §1
(§4) In addition, dysregulated activity of downstream mediators of EGFR signaling, such as PTEN, PI3K and K-Ras or amplification of the MET proto-oncogene can also drive the resistant phenotype.

[11] = system: A549 cell line; test: Apoptosis (FACS sub-G1 fraction, cleaved PARP) in A549; assay type: cell-based, human
Protocol: as §1, §4

[12] = system: H2122 cell line; test: Apoptosis (FACS sub-G1 fraction, cleaved PARP) in H2122; assay type: cell-based, human
Protocol: as §1, §4

[13] = system: H1975 cell line; test: Apoptosis (FACS sub-G1 fraction, cleaved PARP) in H1975; assay type: cell-based; details: Homo sapiens, NCI-H1975; H1975 (T790M EGFR); 72 h; read-out: IC50, erlotinib-mediated apoptosis
Protocol: as §1, §4

[14] = system: KLF6; test: KLF6 mRNA and protein expression (qRT-PCR, western) in HCC827; assay type: cell-based, human
Protocol: as §3

[15] = system: KLF6; test: KLF6 mRNA and protein expression in H2122; assay type: cell-based, human; details: 1 μM 72 h
Protocol: as §3

[16] = system: KLF6; test: KLF6 mRNA and protein expression in A549; assay type: cell-based, human; details: 1 μM 72 h
Protocol: as §3

[17] = system: EGFR^L858R mutant mouse-derived tumors; details: in vivo
[18] = system: P-EGFR, P-AKT, P-FOXO1, T-FOXO1; test: Western blot of EGFR-AKT-FOXO1 signaling in HCC827; assay type: cell-based, human
Protocol: EGFR activates two major downstream pathways, the Ras-Raf-MAPK and the PI3K-AKT signaling cascades, resulting in both increased cellular proliferation and survival. […] The role of PI3K-AKT signaling cascade was tested utilizing an antagonist of AKT signaling that acts by inhibiting of the PDK1 and 2 kinases that activate AKT.

[19] = system: FOXO1 and KLF6; assay type: cell-based, human
[20] = system: shLuc-HCC827; test: Clonogenic assay, shLuc-HCC827; assay type: cell-based, human; details: control shLuc; 50 nM; 7 days
Protocol: HCC827 shLuc and shKLF6 were plated at a low density in 6-well plates. […] Cells were fixed and then stained with 1% crystal violet staining solution.

[21] = system: ERK and AKT
Description: (§5) The variable sensitivity of the lung adenocarcinoma cell lines to anti-EGFR-based therapy was used to determine the effects of EGFR inhibition on KLF6 gene transcription.

[22] = system: ERK and AKT; remark: listed apart in the source
Description: as §5

For `OCCN1CCN(CC/C=C2/c3ccccc3Sc3ccc(C(F)(F)F)cc32)CC1` [flupentixol], the “average daily clinical dose for CNS effect” value (shortened to “average daily clinical dose”) [1] is listed as 0.01 µmol/kg.
In the case of `CN(C)CCCN1c2ccccc2Sc2ccc(C(F)(F)F)cc21` [triflupromazine], the “average daily clinical dose” value [1] is listed as 6 µmol/kg.
For `OCCN1CCN(CC/C=C2/c3ccccc3Sc3ccc(Cl)cc32)CC1` [zuclopenthixol], the “average daily clinical dose” value [1] is listed as ~0.05 µmol/kg.
In the case of `CN(C)CCCN1c2ccccc2Sc2ccc(Cl)cc21` [chlorpromazine, 3-(2-chloro-10H-phenothiazin-10-yl)-N,N-dimethyl-propan-1-amine], the “Apoptosis (sub-G1 propidium iodide staining)” value ([2]; increasing doses of CPZ, 48 hrs) is reported as “increased amount of apoptosis”, the IC50 [3] is reported as 20 µM and the IC50 [4] is reported as 20 µM. For the same compound, the IC50 [5] was 8 µM, the “average daily clinical dose” value [1] was 12 µmol/kg and the “Nuclear accumulation of FOXO1” value [6] was “significant nuclear accumulation of FOXO1”.
With `CN1CCN(CCCN2c3ccccc3Sc3ccc(C(F)(F)F)cc32)CC1` [TFP, 10-[3-(4-methylpiperazin-1-yl)propyl]-2-(trifluoromethyl)-10H-phenothiazine] the “Apoptosis (FACS, cleaved PARP, cleaved Caspase 3)” value ([2]; 40 μM TFP, 1 h) was “increased apoptosis”, the “KLF6 mRNA and protein” value [7] was “upregulation of KLF6 mRNA and protein” and the “Nuclear FOXO1 expression” value [8] was “increased nuclear FOXO1 expression”. For the same compound, the Tumor growth rate [9] was “decreased” and the “average daily clinical dose” value [1] was 0.3 µmol/kg.
In the case of `CSc1ccc2c(c1)N(CCC1CCCCN1C)c1ccccc1S2` (stereo not drawn) [thiordazine], the “average daily clinical dose” value [1] is listed as 13 µmol/kg.
With `C#Cc1cccc(Nc2ncnc3cc(OCCOC)c(OCCOC)cc23)c1` [erlotinib, [6,7-bis(2-methoxyethoxy)-4-quinazolin-4-yl]-(3-ethynylphenyl) amine] the “Apoptosis (sub-G1 propidium iodide staining, cleaved PARP)” value [10] was “significantly increased levels of apoptosis”, the “Cleaved PARP” value [10] was “increased cleaved PARP” and the Induction of apoptosis ([11]; A549) was “did not result in a significant induction of apoptosis”. For the same compound, the IC50 ([11]; Homo sapiens, A549, 72 h, read-out: IC50, erlotinib-mediated apoptosis) was > 0.5 µM, the Induction of apoptosis ([12]; H2122) was “did not result in a significant induction of apoptosis” and the IC50 ([12]; Homo sapiens, NCI-H2122, 72 h, read-out: IC50, erlotinib-mediated apoptosis) was > 0.5 µM. For the same compound, the IC50 [13] was > 0.5 µM, the “Apoptosis (sub-G1 propidium iodide staining, cleaved PARP)” value ([2]; 1 μM erlotinib, 48 h) was “no increase in apoptosis” and the KLF6 expression [14] was “significant upregulated”. For the same compound, the “KLF6 gene expression, endogenous mRNA and protein” value [14] was “Significant upregulation”, the “KLF6 expression, mRNA and protein” value [15] was “still upregulated” and the “KLF6 expression, mRNA and protein” value [16] was “still upregulated”. The “KLF6 expression in tumors” value [17] was “increased KLF6 expression at both the mRNA and protein level”, the “Spontaneous apoptosis, Caspase 3 cleavage in tumors” value [17] was “increased Caspase 3 cleavage” and the “Phosphorylated EGFR, AKT and FOXO1” value [18] was “reduced phosphorylated forms of EGFR, AKT and FOXO1”. The “Total FOXO1” value [18] was “increased total amount of FOXO1”, the “Nuclear localization of FOXO1 and KLF6” value [19] was “increased” and the Colony formation [20] was “decreased colony formation”. For the same compound, the Tumor growth rate [9] was “increased”, the “Downstream ERK signaling” value [21] was “no changes in downstream ERK signaling” and the “Downstream ERK signaling” value [22] was “no changes in downstream ERK signaling”.
For `OCCN1CCN(CCCN2c3ccccc3Sc3ccc(C(F)(F)F)cc32)CC1` [fluphenazine], the “average daily clinical dose” value [1] is listed as 0.17 µmol/kg.
For `OCCN1CCN(CCCN2c3ccccc3Sc3ccc(Cl)cc32)CC1` [perphenazine], the “average daily clinical dose” value [1] is given as ~1 µmol/kg.
In the case of `CN(C)CCCN1c2ccccc2Sc2ccccc21` [promazine], the average daily clinical dose for CNS effect [1] is given as 33 µmol/kg.
